In patent US4640931A, “3-(indian-5-yloxy (or thio)) cyclopentanecarboxylic acid analogues” (Ono Pharmaceutical Co., Ltd., priority 1984, dated 1987):

Assays:
[1] = tested on: organ slice of cat cerebral cortex (cerebral edema); test: inhibition test on cerebral edema using organ slice of cat cerebral cortex (NaHCO3-stimulated swelling); format: cell-based; conditions: for IC50: Felis catus, 50 min, cat cerebral cortex slices, NaHCO3 stimulated swelling, 50 minutes at 37° C., pH 7.4, read-out: Inhibitory activity cerebral edema (IC50); for Relative activity (Compound A = 1): relative to Compound A = 1
Protocol: The inhibition test on cerebral edema using organ slice of cat cerebral cortex The test was carried out by the method described in Journal of Medicinal Chemistry, vol. 25 (No. 5) 567 (1982).
That is, brain was isolated from a cat weighing 2-4 kg, slices of about 1 mm in thickness was prepared, the white matter substance was removed, and the gray matter substance (100-150 mg a test) was used for a sample. The sample was added to the following incubation medium and incuvated for 50 minutes at 37° C. After the incubation, the sample was immediately weighed again to determine the swelling weight of the sample. […]
incubation medium (osmotic pressure, 280-290 mOsm/1)
1. Hepes Buffer (pH 7.4) . . . 2.365 ml […]
adjusted to pH 7.4 by NaOH
2. test compounds [dissolved in the presence of tris(hydroxymethyl)aminomethane] or water . . . 0.01 ml 3. 0.2M NaHCO3 (dissolved by Hepes Buffer, giving the final concentration of 10 mM in medium) or Hepes Buffer . . . 0.125 ml The test was carried out by using NaHCO3 as a stimulating agent of swelling.
(A) A percentage of swelling when a slice sample was added to incubation medium comprising Hepes Buffer (1), water (2) and NaHCO3 (3) (defined as maximum of swelling).
(B) A percentage of swelling when a slice sample was added to incubation medium comprising Hepes Buffer ((1)+(3)) and water (2) (defined as maximum inhibition of swelling).
(C) A percentage of swelling when a slice sample was added to incubation medium comprising Hepes Buffer (1), the test compounds in various concentrations (2) and NaHCO3 (3).
Above-mentioned (A), (B) and (C) were determined. Inhibition percentage of the test compounds was caliculated by the following equation: [formula] IC50 value was determined by dose-response curve as a concentration in which inhibition percentage was 50.

[2] = tested on: organ slice of cat cerebral cortex (cerebral edema); conditions: in words, known DCPIB; cited from earlier work
acute toxicity test = conditions: in vivo, iv; administered intravenously
Text: On the other hand, it was confirmed that the acute toxicity of the compounds of the present invention was very weak. […] Therefore, compounds of the present invention may be considered to be sufficiently safe and suitable for medical use.

IC50 [1] [nM] | Structure (SMILES) | Relative activity (Compound A = 1) [1] | inhibitory effect on cerebral edema [2] | LD50 (acute toxicity test) [mg/kg]
5.9 | CC1(C2CCCC2)Cc2cc(S[C@H]3CC[C@H](C(=O)O)C3)c(Cl)c(Cl)c2C1=O (mixture of isomers) [Ex. 2 (b), (1S, 3S)-3-[((2RS)-2-cyclopentyl-2-methyl-6,7-dichloro-1-oxoindan-5-yl)thio]cyclopentanecarboxylic acid] | 5.42 | – | –
32 | C[C@]1(C2CCCC2)Cc2cc(OCCCC(=O)O)c(Cl)c(Cl)c2C1=O [Compound A, (+)-4-[((2R)-2-cyclopentyl-2-methyl-6,7-dichloro-1-oxoindan-5-yl)oxy]butyric acid, reference compound] | – | strong, but the effect is not enough to use in practice | –
1.6 | C[C@@]1(C2CCCC2)Cc2cc(O[C@H]3CC[C@H](C(=O)O)C3)c(Cl)c(Cl)c2C1=O [Ex. 2 (c), (1S, 3S)-3-[((2S)-2-cyclopentyl-2-methyl-6,7-dichloro-1-oxoindan-5-yl)oxy]cyclopentanecarboxylic acid] | 20.0 | – | –

Structure (SMILES) | IC50 [1] [nM] | Relative activity (Compound A = 1) [1] | inhibitory effect on cerebral edema [2] | LD50 (acute toxicity test) [mg/kg]
CC1(C2CCCC2)Cc2cc(O[C@H]3CC[C@H](C(=O)O)C3)c(Cl)c(Cl)c2C1=O (relative stereo) [Ex. 2, 1,3-trans-3-[((2RS)-2-cyclopentyl-2-methyl-6,7-dichloro-1-oxoindan-5-yl)oxy]cyclopentanecarboxylic acid] | 2.5 | 12.8 | – | –
CC1(C2CCCC2)Cc2cc(O[C@H]3CC[C@H](C(=O)O)C3)c(Cl)c(Cl)c2C1=O (mixture of isomers) [Ex. 2 (a), (1S, 3S)-3-[((2RS)-2-cyclopentyl-2-methyl-6,7-dichloro-1-oxoindan-5-yl)oxy]cyclopentanecarboxylic acid] | 1.5 | 21.3 | – | 200 to 400
